Values quoted from earlier work, collected in patent US20150216948A1, “CYTOCHROME P450 SUICIDE GENE SYSTEM” (priority 2012, published 2015).

Settings: 5-day infusion regimens, patients with lung and liver cancers

For `CC(O)CCC(=O)c1ccoc1` (stereo not shown) [4-IPO, 1-[3-furyl]-4-hydroxypentanone], the “serum concentrations, highly efficient for killing human P427 mutant CYP4B1 transgenic human cells within 72 h” value is listed as “up to 90 μM”.
